Structures can show the parent of a compound that is named as a salt.
Assays:
Experiment in all cases: NCI screening panel, growth %
Type in all cases: cell-based, human
A498 = settings: Renal
Description: (§1) After 24 h, two plates of each cell line are fixed in situ with TCA, to represent a measurement of the cell population for each cell line at the time of drug addition (Tz). Experimental drugs are solubilised in dimethyl sulfoxide at 400-fold the desired final maximum test concentration and stored frozen prior to use. At the time of drug addition, an aliquot of frozen concentrate is thawed and diluted to twice the desired final maximum test concentration with complete medium containing 50 μg/ml gentamicin. Additional four, 10-fold or log serial dilutions are made to provide a total of five drug concentrations plus control. Aliquots of 100 μl of these different drug dilutions are added to the appropriate microtiter wells already containing 100 μl of medium, resulting in the required final drug concentrations.
(§2) Following drug addition, the plates are incubated for an additional 48 h at 37° C., 5% CO2, 95% air, and 100% relative humidity. For adherent cells, the assay is terminated by the addition of cold TCA (trichloroacetic acid). Cells are fixed in situ by the gentle addition of 50 μl of cold 50% (w/v) TCA (final concentration, 10% TCA) and incubated for 60 minutes at 4° C. The supernatant is discarded, and the plates are washed five times with tap water and air dried. Sulforhodamine B (SRB) solution (100 μl) at 0.4% (w/v) in 1% acetic acid is added to each well, and plates are incubated for 10 minutes at room temperature. After staining, unbound dye is removed by washing five times with 1% acetic acid and the plates are air dried. Bound stain is subsequently solubilised with 10 mM trizma base, and the absorbance is read on an automated plate reader at a wavelength of 515 nm. For suspension cells, the methodology is the same except that the assay is terminated by fixing settled cells at the bottom of the wells by gently adding 50 μl of 80% TCA (final concentration, 16% TCA). Using the seven absorbance measurements [time zero, […], control growth, (C), and test growth in the presence of drug at the five concentration levels (Ti)], the percentage growth is calculated at each of the drug concentration levels. Percentage growth inhibition is calculated as: [(Ti−Tz)/(C−Tz)]×100 for concentrations in which Ti>/=Tz and [(Ti−Tz)/Tz]×100 for concentrations in which Ti<Tz.
(§3) Three dose response parameters are calculated for each experimental agent. […] The drug concentration resulting in total growth inhibition (TGI) is calculated from Ti=Tz. […] Values are calculated for each of these three parameters if the level of activity is reached. However, if the effect is not reached or is exceeded, the value for that parameter is expressed as greater or less than the maximum or minimum concentration tested.

CAKI-1 = settings: Renal
Description: as §1, §2, §3

DU-145 = settings: Prostate
Description: as §1, §2, §3

EKVX = settings: NSCLC
Description: as §1, §2, §3

HCC-2998 = settings: Colon
Description: as §1, §2, §3

HCT-116 = settings: Colon
Description: as §1, §2, §3

HOP-62 = settings: NSCLC
Description: as §1, §2, §3

HOP-92 = settings: NSCLC
Description: as §1, §2, §3

KM12 = settings: Colon
Description: as §1, §2, §3

LOX IMVI = settings: Melanoma
Description: as §1, §2, §3

M14 = settings: Melanoma
Description: as §1, §2, §3

MCF7 = settings: Breast
Description: as §1, §2, §3

MDA-MB-231/ATCC = settings: Breast
Description: as §1, §2, §3

MDA-MB-468 = settings: Breast
Description: as §1, §2, §3

NCI-H460 = settings: NSCLC
Description: as §1, §2, §3

NCI-H522 = settings: NSCLC
Description: as §1, §2, §3

NCI/ADR-RES = settings: Ovarian
Description: as §1, §2, §3

OVCAR-3 = settings: Ovarian
Description: as §1, §2, §3

OVCAR-5 = settings: Ovarian
Description: as §1, §2, §3

OVCAR-8 = settings: Ovarian
Description: as §1, §2, §3

PC-3 = settings: Prostate
Description: as §1, §2, §3

SF-539 = settings: CNS
Description: as §1, §2, §3

SK-MEL-28 = settings: Melanoma
Description: as §1, §2, §3

SK-MEL-2 = settings: Melanoma
Description: as §1, §2, §3

SK-MEL-5 = settings: Melanoma
Description: as §1, §2, §3

SK-OV-3 = settings: Ovarian
Description: as §1, §2, §3

SNB-19 = settings: CNS
Description: as §1, §2, §3

SW-620 = settings: Colon
Description: as §1, §2, §3

T-47D = settings: Breast
Description: as §1, §2, §3

TK-10 = settings: Renal
Description: as §1, §2, §3

U251 = settings: CNS
Description: as §1, §2, §3

UACC-257 = settings: Melanoma
Description: as §1, §2, §3

UACC-62 = settings: Melanoma
Description: as §1, §2, §3

UO-31 = settings: Renal
Description: as §1, §2, §3

SMILES: Fc1ccc(Nc2ncnc3cc(OCCOC(F)F)c(OCCOC(F)F)cc23)c(F)c1Cl [Compound 2D•HCl, N-(3-chloro-2,4-difluoro-phenyl)-6,7-bis[2-(difluoromethoxy)ethoxy]quinazolin-4-amine]
- Growth % (A498): 13.11%
- Growth % (CAKI-1): 15.86%
- Growth % (DU-145): 35.29%
- Growth % (EKVX): 48.49%
- Growth % (HCC-2998): 91.93%
- Growth % (HCT-116): 81.03%
- Growth % (HOP-62): 64.36%
- Growth % (HOP-92): 39.43%
- Growth % (KM12): 85.84%
- Growth % (LOX IMVI): 52.34%
- Growth % (M14): 59.47%
- Growth % (MCF7): 66.06%
- Growth % (MDA-MB-231/ATCC): 65.62%
- Growth % (MDA-MB-468): −39.62%
- Growth % (NCI-H460): 85.74%
- Growth % (NCI-H522): 24.07%
- Growth % (NCI/ADR-RES): 54.63%
- Growth % (OVCAR-3): 60.72%
- Growth % (OVCAR-5): 26.63%
- Growth % (OVCAR-8): 69.11%
- Growth % (PC-3): 65.70%
- Growth % (SF-539): 73.76%
- Growth % (SK-MEL-28): 81.10%
- Growth % (SK-MEL-2): 79.82%
- Growth % (SK-MEL-5): 74.60%
- Growth % (SK-OV-3): −13.36%
- Growth % (SNB-19): 75.78%
- Growth % (SW-620): 91.49%
- Growth % (T-47D): 19.78%
- Growth % (TK-10): 34.04%
- Growth % (U251): 72.65%
- Growth % (UACC-257): 87.43%
- Growth % (UACC-62): 82.70%
- Growth % (UO-31): 15.03%
